Measurements from patent publication US20260216239A1 (Arizona Board of Regents on Behalf of the University of …, priority 2020, published 2026).
“Also recorded” adds a separate entry of the source.

Test system: Pseudonaja textilis venom
Experiment: Thrombelastography in human plasma of venom procoagulant activity after isolated exposure of venom to compounds
Type: biochemical
Details: for maximum rate of thrombus generation (MRTG) / total thrombus generation (TTG), clot strength: 100 μM CORM-3, 100 μM RuCl3 or both; for maximum rate of thrombus generation (MRTG) / total thrombus generation (TTG), clot strength / time to maximum rate of thrombus generation (TMRTG): venom 0.1 μg/ml in plasma; for time to maximum rate of thrombus generation (TMRTG): venom exposed 5 min in PBS to 100 μM CORM-3, 100 μM RuCl3 or both
Description: […] A sample of each of these venom mixtures was then placed into human plasma (0.1 μg/ml final concentration of venom), with coagulation determined by thrombelastography until final clot strength stabilized.
All venom solutions without or with chemical additions in isolation were added as a 1% addition to the plasma mix used in our thrombelastographic system (see, Nielsen, V. G.; et al., Biometals 2016, 29, 913-919; Nielsen, V. G.; Losada, P. A. Basic Clin. Pharmacol. Toxicol. 2017, 120, 207-212; Nielsen, V. G.; Frank, N. J. Thromb. Thrombolysis 2019, 47, 533-539; Nielsen, V. G.; Bazzell, C. M. J. Thromb. Thrombolysis 2017, 43, 203-208; Nielsen, V. G.; Matika, R. W. Hum. Exp. Toxicol. 2017, 36, 727-733; Nielsen, V. G.; et al., Toxins 2018, 10, 322; Nielsen, V. G.; et al., Biometals 2018, 31, 51-59; Nielsen, V. G.; Frank, N. et al., Biometals 2018, 31, 951-959; Nielsen, V. G.; et al., Toxins 2019, 11, 94; Nielsen, V. G.; Frank, N. Hum Exp. Toxicol. 2019, 38, 216-226; Nielsen, V. G. J. Thromb. Thrombolysis 2019, 48, 256-262; Nielsen, V. G.; et al., Blood Coagul. Fibrinolysis 2019, 30, 379-384; Nielsen, V. G. J. Thromb. Thrombolysis 2019, 47, 73-79; Gessner, G.; et al., Eur. J. Pharmacol. 2017, 815, 33-41). […] The thrombelastographic model describes coagulation kinetics with the following three variables: time to maximum thrombus generation (TMRTG, minutes—a measure of time to onset of coagulation), maximum rate of thrombus generation (MRTG, dynes/cm^2/s—a measure of the velocity of clot growth) and total thrombus generation (TTG, dynes/cm^2—a measure of clot strength).
The volumes of subsequently described plasmatic and other additives summed to a final volume of 360 μL. Samples were composed of 320 μL of plasma; 16.4 μL of PBS, 20 μL of 200 mM CaCl2), and 3.6 μL of PBS, RuCl3, or venom solution mixture, which were pipetted into a disposable cup in a Thrombelastograph® hemostasis system (Model 5000, Haemonetics Inc., Braintree, MA, USA) at 37° C., and then rapidly mixed by moving the cup up against and then away from the plastic pin five times. The PBS, RuCl3, or venom solution mixtures was always the last constituent added prior to mixing and data collection. The following viscoelastic parameters described previously (see, Nielsen, V. G.; et al., Biometals 2016, 29, 913-919; Nielsen, V. G.; Losada, P. A. Basic Clin. Pharmacol. Toxicol. 2017, 120, 207-212; Nielsen, V. G.; Frank, N. J. Thromb. Thrombolysis 2019, 47, 533-539; Nielsen, V. G.; Bazzell, C. M. J. Thromb. Thrombolysis 2017, 43, 203-208; Nielsen, V. G.; Matika, R. W. Hum. Exp. Toxicol. 2017, 36, 727-733; Nielsen, V. G.; et al., Toxins 2018, 10, 322; Nielsen, V. G.; et al., Biometals 2018, 31, 51-59; Nielsen, V. G.; Frank, N. et al., Biometals 2018, 31, 951-959; Nielsen, V. G.; et al., Toxins 2019, 11, 94; Nielsen, V. G.; Frank, N. Hum Exp. Toxicol. 2019, 38, 216-226; Nielsen, V. G. J. Thromb. Thrombolysis 2019, 48, 256-262; Nielsen, V. G.; et al., Blood Coagul. Fibrinolysis 2019, 30, 379-384; Nielsen, V. G. J. Thromb.

Molecule	procoagulant activity of venom (venom exposed 5 min to 100 μM CORM-2 in 5% human albumin, venom 100 ng/mL in plasma)	procoagulant activity of venom (venom exposed 5 min to 100 μM CORM-2 in PBS, venom 100 ng/mL in plasma)	maximum rate of thrombus generation (MRTG)	total thrombus generation (TTG), clot strength	time to maximum rate of thrombus generation (TMRTG)	procoagulant activity of venom (venom exposed 5 min to 100 μM RuCl3 in PBS, venom 100 ng/mL in plasma (Example III))
[C-]#[O+].[C-]#[O+].[C-]#[O+].[C-]#[O+].[C-]#[O+].[C-]#[O+].[Cl][Ru][Cl].[Cl][Ru][Cl] [CORM-2, tricarbonyldichlororuthenium(II) dimer]	uninhibited	significantly attenuated				
[Cl][Ru]([Cl])[Cl] [RuCl3, ruthenium(III) chloride]			significantly decreased; also recorded: decrease	enhanced; also recorded: increase	significantly increased; also recorded: significant increase	significant loss of procoagulant activity
Tricarbonylchloro(glycinato)ruthenium [CORM-3]			significantly decreased; also recorded: decrease	enhanced; also recorded: increase	significantly increased; also recorded: significant increase	
